The text below walks through data of US10766888B1, “HMOX1 inducers” (Mitobridge Inc., priority 2019, dated 2020).

For orientation: inhibition means the relative decrease from the control value, in per cent. In general, solubility refers to how much of the substance goes into solution per volume. What is called EC50 is the concentration giving half of the maximal effect.

Values after ≈ are worked out from the molar mass of the structure shown.

One data set addresses hERG channel (Homo sapiens, UniProt Q12809). In words: hERG manual patch clamp assay. The format is cell-based. Conditions: HEK 293 cells stably expressing hERG channel, pH 7.35, 10 μM compound. The method, then:
Cell Lines and Cell Culture
HEK 293 cell line stably expressing hERG channel (Cat # K1236) was purchased from Invitrogen. The cells were cultured in 85% DMEM, 10% dialyzed FBS, 0.1 mM NEAA, 25 mM HEPES, 100 U/mL Penicillin-Streptomycin and 5 μg/mL Blasticidin and 400 μg/mL Geneticin. Cells were split using TrypLE™ Express about three times a week, and maintained between ˜40% to ˜80% confluence. Before the assay, the cells were transferred onto the coverslips at 5×10^5 cells/per 6 cm cell culture dish and induced with doxycycline at 1 μg/mL for 48 hours.
• 1) External solution (in mM): 132 NaCl, 4 KCl, 3 CaCl2, 0.5 MgCl2, 11.1 glucose, and 10 HEPES (pH adjusted to 7.35 with NaOH) • 2) Internal solution (in mM): 140 KCl, 2 MgCl2, 10 EGTA, 10 HEPES and 5 MgATP (pH adjusted to 7.35 with KOH) • 3) hERG currents were tested in presence of 10 μM compound concentration with final concentration of DMSO of 0.1%. Experimental Procedure • 1) Removed the coverslip from the cell culture dish and placed it on the microscope stage in bath chamber. • 2) Located a desirable cell using the 10× objective. Located the tip of the electrode under the microscope using the 10× objective by focusing above the plane of the cells. Once the tip was in focus, advanced the electrode downwards towards the cell using the coarse controls of the manipulator, while simultaneously moving the objective to keep the tip in focus. • 3) When directly over the cell, switched to the 40× objective and used the fine controls of the manipulator to approach the surface of the cell in small steps. • 4) Applied gentle suction through the side-port of the electrode holder to form a gigaohm seal. • 5) Used the Cfast to remove the capacity current that was in coincidence with the voltage step. Obtained the whole cell configuration by applying repetitive, brief, strong suction until the membrane patch ruptured. • 6) Set membrane potential to −60 mV at this point to ensure that hERG channels were not • open. The spikes of capacity current should then be cancelled using the Cslow on the amplifier. 7) Set holding potential to −90 mV for 500 ms; recorded current at 50 kHz and filtered at 10 kHz. Leaking current was tested at −80 mV for 500 ms. • 8) The hERG current was elicited by depolarizing at +30 mV for 4.8 seconds and then the voltage was taken back to −50 mV for 5.2 seconds to remove the inactivation and observe the deactivating tail current. The maximum amount of tail current size was used to determine hERG current amplitude. • 9) Recorded current for 120 seconds to assess the current stability. Only stable cells with recording parameters above threshold were applied for the compound administrations. • 10) Firstly vehicle control was applied to the cells to establish the baseline. […] In order to ensure the good performance of cultured cells and operations, the positive control, Dofetilide, with 5 dose concentration was also used to test the same batch of cells. Data Analysis
The following criteria were used to determine data acceptability. • 1) Initial seal resistance >1 GΩ; • 2) Leak currents <50% of the control peak tail currents at any time; • 3) The peak tail amplitude >250 pA; • 4) Membrane resistance Rm>500 MΩ; • 5) Access resistance (Ra)<10 MΩ; • 6) Apparent run-down of peak current <2.5% per min.
Data that met the above criteria for hERG current quality were further analyzed as the following steps. • 1) Percent hERG current inhibition was calculated using the following equation. • Note: PatchMaster or Clampfit software was used to extract the peak current from the original data.
[formula] • 2) The dose response curve of test compounds was plotted with percentage of hERG current inhibition against the concentration of test compounds using Graphpad Prism 6.0, and fit to a sigmoid dose-response curve with a variable slope.

A short description of a further data set: Kinetic solubility. Conditions: Dulbecco's phosphate buffer saline (DPBS), aqueous buffer, kinetic from dmso stock, DPBS pH 7.4, 25° C., 200 μM test compound. It is filed as physicochemical. In short, it runs like this:
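Compound from 10 mM DMSO stock diluted to 200 μM final in DPBS pH 7.4 and, separately, in DMSO, in duplicate. Shaken 16 h at 25 °C, then centrifuged 20 min at 25 °C. Supernatant analysed by HPLC.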

Data set [1] deals with Human Heme Oxygenase-1 (HMOX-1). Put plainly: ELISA assay to measure human heme oxygenase-1 (HMOX-1) in HepG2 lysate. It is filed as cell-based. Conditions: for EC50: human HMOX1 protein level in HepG2 lysate, * = average of 2 or more EC50 determinations, NA = Not Active, read-out: EC50. In short, it runs like this: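 HO-1 protein levels were read as fold change over DMSO-treated cells, with EC50 derived from these values. Quantitation used a chemiluminescent streptavidin-HRP capture ELISA, calibrated with an HO-1 standard series starting at 20 ng/ml, run at 20 °C. Samples were HepG2 lysates made with Triton X100/EDTA buffer and diluted 1:20.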
(In an ELISA, binding on a coated surface is turned into a signal by an enzyme label.)

hERG channel, sequence (Q12809 whole entry): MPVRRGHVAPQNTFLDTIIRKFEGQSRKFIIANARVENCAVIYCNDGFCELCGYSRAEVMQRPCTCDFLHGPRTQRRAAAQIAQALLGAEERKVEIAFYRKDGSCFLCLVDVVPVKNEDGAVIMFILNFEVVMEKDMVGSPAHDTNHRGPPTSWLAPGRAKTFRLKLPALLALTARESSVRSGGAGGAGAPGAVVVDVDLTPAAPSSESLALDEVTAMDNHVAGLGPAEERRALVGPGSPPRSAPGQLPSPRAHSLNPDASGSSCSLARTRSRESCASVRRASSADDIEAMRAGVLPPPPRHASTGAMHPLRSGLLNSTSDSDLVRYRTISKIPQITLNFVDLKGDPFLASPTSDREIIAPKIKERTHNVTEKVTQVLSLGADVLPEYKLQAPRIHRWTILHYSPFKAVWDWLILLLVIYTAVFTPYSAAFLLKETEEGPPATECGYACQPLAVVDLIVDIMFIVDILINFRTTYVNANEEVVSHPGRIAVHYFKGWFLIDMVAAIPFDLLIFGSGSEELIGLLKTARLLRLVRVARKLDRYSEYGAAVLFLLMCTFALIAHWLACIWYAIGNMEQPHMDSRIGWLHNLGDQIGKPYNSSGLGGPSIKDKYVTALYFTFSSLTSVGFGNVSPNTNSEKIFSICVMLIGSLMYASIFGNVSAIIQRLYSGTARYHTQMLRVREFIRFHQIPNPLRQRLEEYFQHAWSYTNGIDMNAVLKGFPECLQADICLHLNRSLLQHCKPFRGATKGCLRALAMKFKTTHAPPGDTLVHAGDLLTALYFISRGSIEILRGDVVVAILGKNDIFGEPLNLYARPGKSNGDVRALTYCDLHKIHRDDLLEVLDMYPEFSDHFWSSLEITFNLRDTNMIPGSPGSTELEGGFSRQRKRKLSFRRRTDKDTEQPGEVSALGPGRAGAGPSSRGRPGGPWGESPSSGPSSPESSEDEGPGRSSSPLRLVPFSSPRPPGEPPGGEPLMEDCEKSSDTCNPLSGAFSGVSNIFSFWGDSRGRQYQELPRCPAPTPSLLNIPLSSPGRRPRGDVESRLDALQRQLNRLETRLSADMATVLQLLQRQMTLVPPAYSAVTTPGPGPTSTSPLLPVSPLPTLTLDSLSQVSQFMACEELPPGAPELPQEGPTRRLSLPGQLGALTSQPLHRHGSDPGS

`COCCNC(=O)c1ccc2c(c1)nc(Nc1nc3cc(OC(F)(F)F)ccc3[nH]1)n2C` [Example 14, N-(2-methoxyethyl)-1-methyl-2-((5-(trifluoromethoxy)-1H-benzo[d]imidazol-2-yl)amino)-1H-benzo[d]imidazole-5-carboxamide]: at 10 µM the inhibition at hERG channel was 87%. This molecule had a solubility at 16 h in “Kinetic solubility” of 4.2 µM (≈ 1.88 µg/mL). Besides, in data set [1] (fold change of human HMOX1 protein level relative to DMSO control, HepG2), the “Maximum Fold induction” value came out at 6.25 fold. The 50% effective concentration (EC50) in data set [1] stood at 2.3 µM.

Molecule `Cn1c(Nc2nc3ccccc3o2)nc2cc(C(=O)NCCO)ccc21` [Example 16, 2-(benzo[d]oxazol-2-ylamino)-N-(2-hydroxyethyl)-1-methyl-1H-benzo[d]imidazole-5-carboxamide] yielded an inhibition at 10 µM on hERG channel of 35%. Further, in “Kinetic solubility”, the solubility at 16 h turned out to be 11.7 µM (≈ 4.11 µg/mL). The 50% effective concentration (EC50) in data set [1] amounted to 0.7 µM.

For the molecule `Cl.Cn1c(Nc2nc3ccccc3o2)nc2cc(C(=O)NCCN)ccc21` [Example 18, N-(2-aminoethyl)-2-(benzo[d]oxazol-2-ylamino)-1-methyl-1H-benzo[d]imidazole-5-carboxamide hydrochloride], the inhibition at 10 µM against hERG channel stood at 12%. For the same molecule, the solubility at 16 h in the data set “Kinetic solubility” amounted to 12.4 µM. Moreover, in data set [1], the EC50 turned out to be 0.7 µM.

As for `Cn1c(Nc2nc3ccccc3o2)nc2cc(C(=O)NCCN3CCOCC3)ccc21` [Example 20, 2-(benzo[d]oxazol-2-ylamino)-1-methyl-N-(2-morpholinoethyl)-1H-benzo[d]imidazole-5-carboxamide], at 10 µM the inhibition against hERG channel was 59%. Further, in “Kinetic solubility”, the solubility at 16 h was 7.3 µM (≈ 3.07 µg/mL). In data set [1], the EC50 was determined as 1 µM.

Take `CC(O)CNC(=O)c1ccc2c(c1)nc(Nc1nc3ccccc3o1)n2C` (stereo not shown) [Example 23, 2-(benzo[d]oxazol-2-ylamino)-N-(2-hydroxypropyl)-1-methyl-1H-benzo[d]imidazole-5-carboxamide]: testing at 10 µM on hERG channel gave an inhibition of 24%. Also, in the data set “Kinetic solubility”, the solubility at 16 h was over 20 µM. In addition, the 50% effective concentration (EC50) in data set [1] worked out at 2.1 µM.

At hERG channel, `CC(O)COCCNC(=O)c1ccc2c(c1)nc(Nc1nc3ccccc3o1)n2C` (stereo not shown) [Example 25] came in with an inhibition at 10 µM of 8%. For the same molecule, the solubility at 16 h in the data set “Kinetic solubility” amounted to 6.1 µM (≈ 2.5 µg/mL). For the same molecule, the EC50 in data set [1] came out at 2.2 µM.

Molecule `Cn1c(Nc2nc3ccccc3o2)nc2cc(C(=O)NCC3(O)COC3)ccc21` [Example 26, 2-(benzo[d]oxazol-2-ylamino)-N-((3-hydroxyoxetan-3-yl)methyl)-1-methyl-1H-benzo[d]imidazole-5-carboxamide] returned an inhibition at 10 µM on hERG channel of 18%. The solubility at 16 h in the data set “Kinetic solubility” is 8.6 µM (≈ 3.38 µg/mL). Moreover, in data set [1], the concentration giving a half-maximal response (EC50) was 2 µM.

As for `Cn1c(Nc2nc3ccccc3o2)nc2cc(C(=O)NCCN3CCCC3)ccc21` [Example 28, 2-(benzo[d]oxazol-2-ylamino)-1-methyl-N-(2-(pyrrolidin-1-yl)ethyl)-1H-benzo[d]imidazole-5-carboxamide], at 10 µM the inhibition against hERG channel was 64%. Further, the solubility at 16 h in the data set “Kinetic solubility” amounted to 11.3 µM (≈ 4.57 µg/mL). Moreover, the EC50 in data set [1] is 1.6 µM.

As for `Cn1c(Nc2nc3ccc(C(F)(F)F)cc3o2)nc2cc(C(=O)O)ccc21` [Example 31, 1-methyl-2-((6-(trifluoromethyl)benzo[d]oxazol-2-yl)amino)-1H-benzo[d]imidazole-5-carboxylic acid], testing at 10 µM at hERG channel gave an inhibition of 0%. The same molecule showed a solubility at 16 h in “Kinetic solubility” of 14.9 µM (≈ 5.61 µg/mL). Moreover, in data set [1], the EC50 is 1.1 µM.

At hERG channel, `Cn1c(Nc2nc3ccc(C(F)(F)F)cc3o2)nc2cc(C(=O)NCCOCCO)ccc21` [Example 34] registered an inhibition at 10 µM of 61%. The solubility at 16 h in “Kinetic solubility” amounted to 8 µM (≈ 3.71 µg/mL). In data set [1], the EC50 came to 0.8 µM.

`Cn1c(Nc2nc3ccc(OC(F)(F)F)cc3o2)nc2cc(C(=O)NCCO)ccc21` [Example 53, N-(2-hydroxyethyl)-1-methyl-2-((6-(trifluoromethoxy)benzo[d]oxazol-2-yl)amino)-1H-benzo[d]imidazole-5-carboxamide]: the inhibition at 10 µM on hERG channel is 70%. The solubility at 16 h in the data set “Kinetic solubility” was determined as 7.3 µM (≈ 3.18 µg/mL). Further, in data set [1], the 50% effective concentration (EC50) is 1.1 µM.

As for `COCCOc1ccc2nc(Nc3nc4cc(C(=O)NCCO)ccc4n3C)oc2c1` [Example 57, N-(2-hydroxyethyl)-2-((6-(2-methoxyethoxy)benzo[d]oxazol-2-yl)amino)-1-methyl-1H-benzo[d]imidazole-5-carboxamide], the inhibition at 10 µM against hERG channel turned out to be 15%. Moreover, the solubility at 16 h in the data set “Kinetic solubility” turned out to be 11.2 µM (≈ 4.76 µg/mL). Also, the half-maximal effective concentration (EC50) in data set [1] is 1.2 µM.

Regarding `COCCOc1ccc2nc(Nc3nc4cc(C(=O)NCCOCCO)ccc4n3C)oc2c1` [Example 58, N-(2-(2-hydroxyethoxy)ethyl)-2-((6-(2-methoxyethoxy)benzo[d]oxazol-2-yl)amino)-1-methyl-1H-benzo[d]imidazole-5-carboxamide], the inhibition at 10 µM against hERG channel was 11%. The solubility at 16 h in the data set “Kinetic solubility” stood at 7.7 µM (≈ 3.62 µg/mL). The EC50 in data set [1] stood at 1.7 µM.

Turning to `Cn1c(Nc2nc3ccc(OC(F)F)cc3o2)nc2cc(C(=O)O)ccc21` [Example 62, 2-((6-(difluoromethoxy)benzo[d]oxazol-2-yl)amino)-1-methyl-1H-benzo[d]imidazole-5-carboxylic acid], the inhibition at 10 µM on hERG channel was found to be 13%. Further, in the data set “Kinetic solubility”, the solubility at 16 h was determined as 16.2 µM (≈ 6.06 µg/mL). In addition, in data set [1], the half-maximal effective concentration (EC50) came out at 5.1 µM.

As for `COCCNC(=O)c1ccc2c(c1)nc(Nc1nc3ccc(F)cc3o1)n2C` [Example 69, 2-((6-fluorobenzo[d]oxazol-2-yl)amino)-N-(2-methoxyethyl)-1-methyl-1H-benzo[d]imidazole-5-carboxamide], at hERG channel, the inhibition at 10 µM is 38%. Moreover, the solubility at 16 h in “Kinetic solubility” was under 5 µM. Also, the EC50 in data set [1] amounted to 0.66 µM.

As for `COCCn1c(Nc2nc3cc(OC(F)(F)F)ccc3[nH]2)nc2cc(C(=O)O)ccc21` [Example 75, 1-(2-methoxyethyl)-2-((5-(trifluoromethoxy)-1H-benzo[d]imidazol-2-yl)amino)-1H-benzo[d]imidazole-5-carboxylic acid], 10 µM produced 9% inhibition at hERG channel. The solubility at 16 h in the data set “Kinetic solubility” is 11.6 µM (≈ 5.05 µg/mL). In data set [1], the EC50 worked out at 0.37 µM.

In turn, `CCn1c(Nc2nc3ccc(OC(F)(F)F)cc3o2)nc2cc(C(=O)NCCO)ccc21` [Example 86, 1-ethyl-N-(2-hydroxyethyl)-2-((6-(trifluoromethoxy)benzo[d]oxazol-2-yl)amino)-1H-benzo[d]imidazole-5-carboxamide] gave an inhibition at 10 µM at hERG channel of 64%. This molecule also gave a solubility at 16 h in the data set “Kinetic solubility” of 7.1 µM (≈ 3.19 µg/mL). The concentration for a half-maximal effect (EC50) in data set [1] worked out at 1.3 µM.

On to `CN(C)CC(=O)NCCONC(=O)c1ccc2c(c1)nc(Nc1nc3ccccc3o1)n2C` [Example 121, 2-(benzo[d]oxazol-2-ylamino)-N-(2-(2-(dimethylamino)acetamido)ethoxy)-1-methyl-1H-benzo[d]imidazole-5-carboxamide], for which, at hERG channel, the inhibition at 10 µM is 66%. Besides, in the data set “Kinetic solubility”, the solubility at 16 h amounted to 9 µM (≈ 4.06 µg/mL). The EC50 in data set [1] came to 1.4 µM.
